Where a name gives a salt, the structure may show the parent alone.
Biological target: TrkA (Homo sapiens (Human), UniProt P04629)
Test: TrkA Omnia Assay
Assay type: biochemical
Details: averaged IC50; 20 nM enzyme, 500 μM ATP, 10 μM peptide substrate
Outline: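 Continuous fluorescent kinase read-out (ex 360 nm, em 485 nm) over 70 min, with initial rates fitted to 4- or 5-parameter logistic curves for IC50. Final conditions: 500 μM ATP, 10 μM Omnia Tyr Peptide #4, 20 nM TrkA, MOPS pH 7.5 buffer with MgCl2 and Triton X-100; enzyme and compound preincubated 10 min at ambient temperature.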

Sequence of TrkA (P04629 33-796): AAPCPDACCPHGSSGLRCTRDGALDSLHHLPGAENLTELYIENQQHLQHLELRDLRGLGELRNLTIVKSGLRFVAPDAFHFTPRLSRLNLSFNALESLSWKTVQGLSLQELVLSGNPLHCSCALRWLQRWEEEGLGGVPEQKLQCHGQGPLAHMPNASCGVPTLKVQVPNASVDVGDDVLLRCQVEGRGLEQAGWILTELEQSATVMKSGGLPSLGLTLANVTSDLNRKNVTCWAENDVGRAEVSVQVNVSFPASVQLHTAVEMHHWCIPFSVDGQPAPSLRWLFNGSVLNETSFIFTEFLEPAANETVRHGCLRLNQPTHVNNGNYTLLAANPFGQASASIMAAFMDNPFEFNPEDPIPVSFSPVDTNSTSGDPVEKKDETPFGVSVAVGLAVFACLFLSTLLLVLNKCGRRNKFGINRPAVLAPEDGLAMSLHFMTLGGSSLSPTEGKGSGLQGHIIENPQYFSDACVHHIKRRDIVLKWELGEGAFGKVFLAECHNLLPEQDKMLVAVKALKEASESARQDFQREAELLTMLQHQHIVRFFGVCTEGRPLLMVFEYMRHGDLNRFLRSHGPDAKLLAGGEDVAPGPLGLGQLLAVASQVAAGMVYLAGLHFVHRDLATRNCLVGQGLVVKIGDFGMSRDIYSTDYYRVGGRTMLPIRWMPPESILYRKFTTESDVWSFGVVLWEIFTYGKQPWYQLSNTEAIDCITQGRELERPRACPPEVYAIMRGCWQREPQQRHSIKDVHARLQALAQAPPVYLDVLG

SMILES	IC50 [nM]
O=C(Nc1c2c(nn1-c1ccccc1)CCC2)N[C@@H]1CN(CC(F)(F)F)C[C@H]1c1cccc(Cl)c1 (relative stereo) [Example 208, 1-((trans)-4-(3-chlorophenyl)-1-(2,2,2-trifluoroethyl)pyrrolidin-3-yl)-3-(2-phenyl-2,4,5,6-tetrahydrocyclopenta[c]pyrazol-3-yl)urea]	100 to 1000
COCCN1C[C@@H](NC(=O)Nc2cc(C3CCNCC3)nn2-c2ccccc2)[C@H](c2ccc(F)c(F)c2)C1 [Example 580, 1-((3S,4R)-4-(3,4-difluorophenyvl)-1-(2-methoxyethyl)pyrrolidin-3-yl)-3-(1-phenyl-3-(piperidin-4-yl)-1H-pyrazol-5-yl)urea dihydrochloride]	100 to 1000
COCCN1C[C@@H](NC(=O)Nc2cc(-c3ccccc3OC)nn2C)[C@H](c2ccc(F)c(F)c2)C1 [Example 106, 1-((3S,4R)-4-(3,4-difluorophenyl)-1-(2-methoxyethyl)pyrrolidin-3-yl)-3-(3-(2-methoxy-phenyl)-1-methyl-1H-pyrazol-5-yl)urea]	100 to 1000
NC(=O)CN1C[C@@H](NC(=O)Nc2c3c(nn2-c2ccccc2)CCC3)[C@H](c2ccccc2)C1 [Example 190, 2-((3R,4S)-3-phenyl-4-(3-(2-phenyl-2,4,5,6-tetrahydrocyclopenta[c]pyrazol-3-yl)ureido)pyrrolidin-1-yl)acetamide]	1000 to 10000
CCOc1nn(-c2ccccc2)c(NC(=O)N[C@@H]2CN(c3ccccc3OC)C[C@H]2c2ccccc2)c1C [Example 237, 1-(3-ethoxy-4-methyl-1-phenyl-1H-pyrazol-5-yl)-3-((3S,4R)-1-(2-methoxyphenyl)-4-phenylpyrrolidin-3-yl)urea]	100 to 1000
N#CCN1C[C@@H](NC(=O)Nc2c3c(nn2-c2ccccc2)CCC3)[C@H](c2ccccc2)C1 [Example 188, 1-((3,4-trans)-1-(cyanomethyl)-4-phenylpyrrolidin-3-yl)-3-(2-phenyl-2,4,5,6-tetrahydrocyclopenta[c]pyrazol-3-yl)urea]	100 to 1000
COCCN1C[C@@H](NC(=O)Nc2c(C(N)=O)c(C)nn2-c2ccccc2)[C@H](c2ccc(F)c(F)c2)C1 [Example 620, 5-(3-((3S,4R)-4-(3,4-difluoro-phenyl)-1-(2-methoxyethyl)pyrrolidin-3-yl)ureido)-3-methyl-1-phenyl-1H-pyrazole-4-carboxamide]	< 100
CCOc1nn(-c2ccccc2)c(NC(=O)N[C@@H]2CN(C(CO)COC)C[C@H]2c2ccc(F)c(F)c2)c1C (stereo partly drawn) [Example 263, 1-((3S,4R)-4-(3,4-difluorophenyl)-1-(1-hydroxy-3-methoxypropan-2-yl)pyrrolidin-3-yl)-3-(3-ethoxy-4-methyl-1-phenyl-1H-pyrazol-5-yl)urea]	< 100
COCCN1C[C@@H](NC(=O)Nc2c(C)c(-c3ccc(=O)n(C)c3)nn2-c2ccccc2)[C@H](c2ccc(F)cc2)C1 [Example 519, 1-((3S,4R)-4-(4-fluorophenyl)-1-(2-methoxyethyl)pyrrolidin-3-yl)-3-(4-methyl-3-(1-methyl-6-oxo-1,6-dihydropyridin-3-yl)-1-phenyl-1H-pyrazol-5-yl)urea]	< 100
CCOc1nn(-c2ccccc2)c(NC(=O)N[C@@H]2CN(c3ccccc3OC)C[C@H]2c2ccc(F)c(F)c2)c1C [Example 233, 1-((3S,4R)-4-(3,4-difluorophenyl)-1-(2-methoxyphenyl)pyrrolidin-3-yl)-3-(3-ethoxy-4-methyl-1-phenyl-1H-pyrazol-5-yl)urea]	100 to 1000
COCCN1C[C@@H](NC(=O)Nc2cc(-c3ccc(C)cc3)nn2C)[C@H](c2ccc(F)c(F)c2)C1 [Example 102, 1-((3S,4R)-4-(3,4-difluorophenyl)-1-(2-methoxyethyl)pyrrolidin-3-yl)-3-(1-methyl-3-p-tolyl-1H-pyrazol-5-yl)urea]	< 100
CCOc1nn(-c2ccccc2)c(NC(=O)N[C@@H]2CN(c3ccccc3F)C[C@H]2c2ccccc2)c1C [Example 234, 1-(3-ethoxy-4-methyl-1-phenyl-1H-pyrazol-5-yl)-3-((3S,4R)-1-(2-fluorophenyl)-4-phenylpyrrolidin-3-yl)urea]	100 to 1000
COCCN1C[C@@H](NC(=O)Nc2c3c(nn2-c2ccccc2)C(C)(C)CC3)[C@H](c2ccccc2)C1 [Example 36, 1-(6,6-dimethyl-2-phenyl-2,4,5,6-tetrahydro-yclopenta [c]pyrazol-3-yl)-3-(trans-1-(2-methoxyethyl)-4-phenyl-pyrrolidin-3-yl)urea]	< 100
CNCCN1C[C@@H](NC(=O)Nc2c3c(nn2-c2ccccc2)CCC3)[C@H](c2ccc(F)cc2)C1 (relative stereo) [Example 256, 1-((trans)-4-(4-fluorophenyl)-1-(2-(methylamino)ethyl)pyrrolidin-3-yl)-3-(2-phenyl-2,4,5,6-tetrahydrocyclopenta[c]pyrazol-3-yl)urea]	100 to 1000
COCCN1C[C@@H](NC(=O)Nc2c(C)c(-c3nc(C)no3)nn2-c2ccccc2)[C@H](c2ccc(F)c(F)c2)C1 [Example 298, 1-((3S,4R)-4-(3,4-difluorophenyl)-1-(2-methoxyethyl)pyrrolidin-3-yl)-3-(4-methyl-3-(3-methyl-1,2,4-oxadiazol-5-yl)-1-phenyl-1H-pyrazol-5-yl)urea]	< 100
COCCN1C[C@@H](NC(=O)Nc2c(Br)c(-c3cnn(C)c3)nn2C)[C@H](c2ccc(F)c(F)c2)C1 [Example 566, 1-(4-bromo-1,1′-dimethyl-1H, 1′H-[3,4′-bipyrazol]-5-yl)-3-((3S,4R)-4-(3,4-difluorophenyl)-1-(2-methoxyethyl)pyrrolidin-3-yl)urea]	100 to 1000
COCCN1C[C@@H](NC(=O)Nc2c(Cl)c(C[C@@H](C)O)nn2-c2ccccc2)[C@H](c2ccc(F)c(F)c2)C1 [Example 413, 1-(4-chloro-3-((R)-2-hydroxypropyl)-1-phenyl-1H-pyrazo1-5-yl)-3-((3S,4R)-4-(3,4-difluorophenyl)-1-(2-methoxyethyl)pyrrolidin-3-yl)urea]	< 100
COCCN1C[C@@H](NC(=O)Nc2c(Br)c(COC3CCNCC3)nn2-c2ccccc2)[C@H](c2ccc(F)c(F)c2)C1 [Example 591, 1-(4-bromo-1-phenyl-3-((piperidin-4-yloxy)methyl)-1H-pyrazol-5-yl)-3-((3S,4R)-4-(3,4-difluorophenyl)-1-(2-methoxyethyl)pyrrolidin-3-yl)urea dihydrochloride]	< 100
COCCN1C[C@@H](NC(=O)Nc2c(C)c(C(=O)NC(C)C)nn2-c2ccccc2)[C@H](c2ccc(F)c(F)c2)C1 [Example 462, 5-(3-((3S,4R)-4-(3,4-difluorophenyl)-1-(2-methoxyethyl)pyrrolidin-3-yl)ureido)-N-isopropyl-4-methyl-1-phenyl-1H-pyrazole-3-carboxamide]	< 100

Second part, the compound after the results:

IC50 [nM]	SMILES
< 100	COCCN1C[C@@H](NC(=O)Nc2c(C)c(-c3ccnn3C)nn2-c2ccccc2)[C@H](c2ccc(F)c(F)c2)C1 [Example 494, 1-((3S,4R)-4-(3,4-difluorophenyl)-1-(2-methoxyethyl)pyrrolidin-3-yl)-3-(2′,4-dimethyl-1-phenyl-1H,2′H-[3,3′-bipyrazol]-5-yl)urea]
< 100	COCCN1C[C@@H](NC(=O)Nc2c(-c3ccccc3)nn(C)c2C)[C@H](c2cc(F)cc(F)c2)C1 [Example 640, 1-((3S,4R)-4-(3,5-difluorophenyl)-1-(2-methoxyethyl)pyrrolidin-3-yl)-3-(1,5-dimethyl-3-phenyl-1H-pyrazol-4-yl)urea]
< 100	CCOc1nn(-c2ccccc2)c(NC(=O)N[C@@H]2CN(Cc3csnn3)C[C@H]2c2ccc(F)c(F)c2)c1C [Example 249, 1-((3S,4R)-1-((1,2,3-thiadiazol-4-yl)methyl)-4-(3,4-difluorophenyl)pyrrolidin-3-yl)-3-(3-ethoxy-4-methyl-1-phenyl-1H-pyrazol-5-yl)urea]
< 100	COCCN1C[C@@H](NC(=O)Nc2c(C)c(-c3cnn(CC4CC4)c3)nn2-c2ccccc2)[C@H](c2ccc(F)c(F)c2)C1 [Example 500, 1-(1′-(cyclopropylmethyl)-4-methyl-l-phenyl-1H, 1′H-[3,4′-bipyrazol]-5-yl)-3-((3S,4R)-4-(3,4-difluorophenyl)-1-(2-methoxyethyl)pyrrolidin-3-yl)urea]
< 100	COCCN1C[C@@H](NC(=O)Nc2c(Cl)c(-c3ccccc3)nn2-c2ccccc2)[C@H](c2cncc(F)c2)C1 (relative stereo) [Example 436, 1-(4-chloro-1,3-diphenyl-1H-pyrazol-5-yl)-3-(trans-4-(5-fluoropyridin-3-yl)-1-(2-methoxyethyl)pyrrolidin-3-yl)urea]
< 100	COCCN1C[C@@H](NC(=O)Nc2c3c(nn2-c2ccccc2)CCC3)[C@H](c2cncc(F)c2)C1 [Example 337, 1-((3S,4R)-4-(5-fluoropyridin-3-yl)-1-(2-methoxyethyl)pyrrolidin-3-yl)-3-(2-phenyl-2,4,5,6-tetrahydrocyclopenta[c]pyrazol-3-yl)urea]
< 100	COCCN1C[C@@H](NC(=O)Nc2c(Cl)c(OCC(C)(C)O)nn2-c2ccccc2)[C@H](c2cc(F)cc(F)c2)C1 [Example 370, 1-(4-chloro-3-(2-hydroxy-2-methylpropoxy)-1-phenyl-1H-pyrazol-5-yl)-3-((3S,4R)-4-(3,5-difluorophenyl)-1-(2-methoxyethyl)pyrrolidin-3-yl)urea]
< 100	COCCN1C[C@@H](NC(=O)Nc2cc(-c3ccncc3)nn2C)[C@H](c2ccc(F)c(F)c2)C1 [Example 97, 1-((3S,4R)-4-(3,4-difluorophenyl)-1-(2-methoxyethyl)pyrrolidin-3-yl)-3-(1-methyl-3-(pyridin-4-yl)-1H-pyrazol-5-yl)urea]
< 100	COCCN1C[C@@H](NC(=O)Nc2cc(C(F)(F)CO)nn2-c2ccccc2)[C@H](c2ccc(F)c(F)c2)C1 [Example 285, 1-(3-(1,1-difluoro-2-hydroxyethyl)-1-phenyl-1H-pyrazol-5-yl)-3-((3S,4R)-4-(3,4-difluorophenyl)-1-(2-methoxyethyl)pyrrolidin-3-yl)urea]
